Laboratory results published in patent publication US10022366B2, “Extending and maintaining micropore viability of microneedle treated skin with lipid biosynthesis inhibitors for sustained drug delivery” (University of Maryland, Baltimore, priority 2013, dated 2018).

Test: Reversibility/recovery of pores by transepidermal water loss (TEWL)
Type: in vivo, hairless guinea pigs (HGP)
Conditions: following 7-day treatment with FLU in vivo
Text: The reversibility/recovery of the pores following removal of occlusion was studied using transepidermal water loss (TEWL) in a HGP model. Five different sites were chosen on the dorsal region of an animal. […] All sites were marked and cleaned on the day of the treatment. […] The concentration and amount of NTX gel and FLU were consistent with the PK studies. A placebo gel was used for site 3 and site 4. The placebo gel was similar in composition to the NTX gel with 10% PG, 1% benzyl alcohol and 3% HEC as the gelling agent. […] All sites were occluded using a transdermal patch (148) secured in place with Bioclusive™ tape. […] All experiments were conducted at least in triplicate. Recovery of the skin, (i.e., regeneration of the barrier function of the SC) was studied using TEWL. These studies were carried out to look at the effect of the local concentration of FLU on the recovery/healing of the skin following removal of occlusion.

CC(C)n1c(/C=C/C(O)CC(O)CC(=O)O)c(-c2ccc(F)cc2)c2ccccc21 (stereo not shown) [FLU, fluvastatin sodium]
time of recovery/healing of skin upon removal of occlusion: 45 min
